Tests used:
[1] = tested on: OPM-2 cells; assay: Cell viability assay (CellTiter-Glo), OPM-2; type: cell-based; conditions: Homo sapiens, 24 hours incubation, 1% FBS, read-out: Average pIC50 by molecule OPM-2 (converted)
Method in brief: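 Luminescent ATP readout (CellTiter-Glo) at 24 hours measured viability, expressed relative to DMSO-treated wells. Compound was added directly to the medium as a 9–12-point threefold series starting at 30 uM, at 0.5% final DMSO. The medium contained FBS reduced to 1%.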

[2] = biological target: [MCL-1]-[compound of formula (I)]-[CRBN/DDB1] complex (Homo sapiens, UniProt Q07820+Q96SW2); assay: HTRF ternary complex assay; type: binding; conditions: ternary complex formation; read-out: HTRF ternary complex Average pEC50 by molecule (converted)
Sequence of [MCL-1]-[compound of formula (I)]-[CRBN/DDB1] complex (Q07820 whole entry): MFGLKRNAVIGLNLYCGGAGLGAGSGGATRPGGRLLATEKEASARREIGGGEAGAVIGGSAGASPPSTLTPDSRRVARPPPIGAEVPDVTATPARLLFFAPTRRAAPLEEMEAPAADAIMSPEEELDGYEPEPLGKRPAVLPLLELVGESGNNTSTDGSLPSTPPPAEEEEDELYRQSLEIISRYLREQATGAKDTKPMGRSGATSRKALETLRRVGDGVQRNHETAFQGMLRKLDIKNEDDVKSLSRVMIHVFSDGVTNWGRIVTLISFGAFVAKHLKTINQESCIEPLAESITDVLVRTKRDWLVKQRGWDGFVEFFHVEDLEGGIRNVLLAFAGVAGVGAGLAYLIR
Sequence of [MCL-1]-[compound of formula (I)]-[CRBN/DDB1] complex (Q96SW2 whole entry): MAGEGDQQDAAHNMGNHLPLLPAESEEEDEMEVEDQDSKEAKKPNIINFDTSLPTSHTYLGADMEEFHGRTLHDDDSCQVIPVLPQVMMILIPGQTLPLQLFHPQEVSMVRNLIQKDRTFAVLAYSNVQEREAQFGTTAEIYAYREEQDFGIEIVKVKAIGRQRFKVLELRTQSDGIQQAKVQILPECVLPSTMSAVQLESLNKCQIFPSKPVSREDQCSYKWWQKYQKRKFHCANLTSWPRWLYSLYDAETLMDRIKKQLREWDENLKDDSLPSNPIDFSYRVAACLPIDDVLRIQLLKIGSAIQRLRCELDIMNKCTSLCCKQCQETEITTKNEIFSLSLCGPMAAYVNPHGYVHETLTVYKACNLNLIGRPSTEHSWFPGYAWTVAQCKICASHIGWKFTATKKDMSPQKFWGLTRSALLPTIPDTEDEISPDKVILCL
Sequence of [MCL-1]-[compound of formula (I)]-[CRBN/DDB1] complex (Q16531 whole entry partner): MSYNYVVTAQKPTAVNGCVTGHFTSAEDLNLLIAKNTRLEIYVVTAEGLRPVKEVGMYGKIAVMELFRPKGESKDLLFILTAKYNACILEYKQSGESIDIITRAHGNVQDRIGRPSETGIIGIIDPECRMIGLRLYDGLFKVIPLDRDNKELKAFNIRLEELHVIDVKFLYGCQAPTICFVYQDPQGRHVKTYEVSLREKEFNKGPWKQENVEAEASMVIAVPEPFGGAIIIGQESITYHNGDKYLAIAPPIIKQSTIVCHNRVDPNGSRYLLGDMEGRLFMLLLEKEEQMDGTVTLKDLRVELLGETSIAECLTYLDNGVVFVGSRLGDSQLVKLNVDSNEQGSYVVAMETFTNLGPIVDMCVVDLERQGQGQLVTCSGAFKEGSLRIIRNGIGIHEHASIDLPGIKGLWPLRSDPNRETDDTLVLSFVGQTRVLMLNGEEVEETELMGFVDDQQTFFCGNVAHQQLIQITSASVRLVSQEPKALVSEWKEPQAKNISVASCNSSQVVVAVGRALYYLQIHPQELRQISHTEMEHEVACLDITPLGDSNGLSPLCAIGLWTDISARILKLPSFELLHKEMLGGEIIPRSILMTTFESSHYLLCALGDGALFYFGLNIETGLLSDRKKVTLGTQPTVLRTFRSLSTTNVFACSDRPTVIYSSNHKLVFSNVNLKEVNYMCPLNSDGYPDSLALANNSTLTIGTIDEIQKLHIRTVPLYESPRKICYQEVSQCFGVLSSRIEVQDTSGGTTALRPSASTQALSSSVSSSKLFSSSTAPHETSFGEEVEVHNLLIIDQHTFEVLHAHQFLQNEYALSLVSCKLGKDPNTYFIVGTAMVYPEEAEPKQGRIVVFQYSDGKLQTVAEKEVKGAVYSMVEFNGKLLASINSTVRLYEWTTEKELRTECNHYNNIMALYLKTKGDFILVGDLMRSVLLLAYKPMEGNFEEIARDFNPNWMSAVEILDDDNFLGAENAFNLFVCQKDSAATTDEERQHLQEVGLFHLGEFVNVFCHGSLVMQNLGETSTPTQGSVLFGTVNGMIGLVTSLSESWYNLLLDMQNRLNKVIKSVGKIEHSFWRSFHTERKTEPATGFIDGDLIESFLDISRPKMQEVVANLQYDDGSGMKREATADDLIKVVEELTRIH
Method in brief: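 hMcl-1 and CRBN (mix at 48 nM and 105.6 nM) with Streptavidin-Eu cryptate and anti-6×His-d2 in PPI Europium buffer with 2 mM DTT; compounds in dose-response, 0.5% DMSO. Incubated 180 min at 25° C, TR-FRET 665/620 read. Bell-shaped curve fitted by Gaussian; EC50 reported.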

[3] = tested on: DMS 114 cells; assay: Cell viability assay (CellTiter-Glo), DMS 114; type: cell-based; conditions: 72 hours incubation, 10% FBS
Method in brief: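 Small-cell lung cancer cells, seeded at 3000 cells/well in medium with 10% FBS, were dosed the next day with 1/3 serial dilutions from 30 uM (9 to 12 points). After 72 hours, viability was read by CellTiter-Glo luminescence.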

[4] = tested on: MV-4-11 cells; assay: Mitochondrial potential changes in cancer cells, flow cytometry (TMRE); type: cell-based; conditions: 5 hours
Method: The effect of compounds 220 and 268 of the invention in MV-4-11 cells was investigated using the following protocol.
MV-4-11 cells were seeded on 384-well plates (0.05 ml) in growth medium containing 1% FBS and 50 nM tetramethylrhodamine ethyl ester (TMRE). Immediately after seeding, compounds in appropriate concentrations were added directly to the cell culture medium. After 5 hours incubation, cells were analyzed by flow cytometry (LSR Fortessa X-20; BD Biosciences). Results were evaluated using FlowJo (V10) software.
FIG. 7 presents the effect of the compound in the mitochondrial potential of MV-4-11 cells treated with 220 for 5 hours. Compound concentration is specified in the top-left corner of each histogram; Dimethyl sulfoxide (DMSO) was used as vehicle control. Population of interest and the percentage of cells included are highlighted with a red bar and shown in bold red ink, respectively.
FIG. 8 presents the concentration dependent decrease (compared to DMSO control) of the population of cells with normal polarized mitochondria after treatment of MV-4-11 cells with the compounds 220 and 268 for 5 hours.

EC50 [2]	Compound	IC50 [1]	mitochondrial potential (population of cells with normal polarized mitochondria) [4]	other results
	Cc1nn(C)c(C)c1-c1c(Cl)ccc2c(CCCOc3cccc4ccccc34)c(C(=O)O)n(CCN3CCN(C(=O)COc4cccc5c4C(=O)N(C4CCC(=O)NC4=O)C5=O)CC3)c12 (centres unmarked) [Compound 204, 6-chloro-1-(2-(4-(2-((2-(2,6-dioxopiperidin-3-yl)-1,3-dioxoisoindolin-4-yl)oxy)acetyl)piperazin-1-yl)ethyl)-3-(3-(naphthalen-1-yloxy)propyl)-7-(1,3,5-trimethyl-1H-pyrazol-4-yl)-1H-indole-2-carboxylic acid]	≤ 1000 nM		
	Cc1nn(C)c(C)c1-c1c(F)ccc2c(CCCOc3cccc4cc(F)ccc34)c(C(=O)O)n(CCN3CCN(C(=O)COc4cccc5c4C(=O)N(C4CCC(=O)NC4=O)C5=O)CC3)c12 (centres unmarked) [Compound 215, 1-{2-[4-(2-{[2-(2,6-dioxopiperidin-3-yl)-1,3-dioxo-2,3-dihydro-1H-isoindol-4-yl]oxy}acetyl)piperazin-1-yl]ethyl}-6-fluoro-3-{3-[(6-fluoronaphthalen-1-yl)oxy]propyl}-7-(1,3,5-trimethyl-1H-pyrazol-4-yl)-1H-indole-2-carboxylic acid]	≤ 1000 nM		
< 100 nM	Cc1nn(C)c(C)c1-c1c(Cl)ccc2c(CCCOc3cccc4cc(F)ccc34)c(C(=O)O)n(CCN3CCN(C(=O)COc4cccc5c4CN(C4CCC(=O)NC4=O)C5=O)CC3)c12 (centres unmarked) [Compound 220, 6-chloro-1-{2-[4-(2-{[2-(2,6-dioxopiperidin-3-yl)-1-oxo-2,3-dihydro-1H-isoindol-4-yl]oxy}acetyl)piperazin-1-yl]ethyl}-3-{3-[(6-fluoronaphthalen-1-yl)oxy]propyl}-7-(1,3,5-trimethyl-1H-pyrazol-4-yl)-1H-indole-2-carboxylic acid]		concentration dependent depolarization of mitochondria	Average pIC50 by molecule DMS 114 [3]: ≥6.5
< 10 nM	Cc1nn(C)c(C)c1-c1c(Cl)ccc2c(CCCOc3cccc4cc(F)ccc34)c(C(=O)O)n(CCN3CCN(C(=O)Cn4c(C)nc5c(C(=O)NC6CCC(=O)NC6=O)cccc54)CC3)c12 (centres unmarked) [Compound 268, 6-chloro-1-{2-[4-(2-{4-[(2,6-dioxopiperidin-3-yl)carbamoyl]-2-methyl-1H-1,3-benzodiazol-1-yl}acetyl)piperazin-1-yl]ethyl}-3-{3-[(6-fluoronaphthalen-1-yl)oxy]propyl}-7-(1,3,5-trimethyl-1H-pyrazol-4-yl)-1H-indole-2-carboxylic acid]		concentration dependent depolarization of mitochondria	
	Cc1nn2c(c1-c1c(Cl)ccc3c(CCCOc4cccc5cc(F)ccc45)c(C(=O)O)n(CCN4CCN(C(=O)COc5cccc6c5CN(C5CCC(=O)NC5=O)C6=O)CC4)c13)COCC2 (centres unmarked) [Compound 346, 6-Chloro-1-(2-(4-(2-((2-(2,6-dioxopiperidin-3-yl)-1-oxoisoindolin-4-yl)oxy)acetyl)piperazin-1-yl)ethyl)-3-(3-((6-fluoronaphthalen-1-yl)oxy)propyl)-7-(2-methyl-6,7-dihydro-4H-pyrazolo[5,1-c][1,4]oxazin-3-yl)-1H-indole-2-carboxylic acid]			IC50 ([3]; Homo sapiens, DMS-114, 72 h, read-out: Average pIC50 by molecule DMS 114 (converted)): ≤ 3160 nM

— patent US20240294499A1, “TARGETED PROTEIN DEGRADATION USING BIFUNCTIONAL COMPOUNDS THAT BIND UBIQUITIN LIGASE AND TARGET MCL-1 PROTEIN” (Captor Therapeutics S.A., priority 2021, published 2024)
